The values that follow come from PubChem BioAssay (NCI).

Common to all, as to assay: DTP human tumour cell line panel, 48 h
For assay [1], the system named is OVCAR-8 ovarian.
Assay [2] deals with SNB-19 CNS.
The test system of assay [3] is SR leukemia.
The subject of assay [4] is TK-10 renal.
Assay [5] deals with HCT-116 colon.
For assay [6], the system named is HT29 colon.
Assay [7] concerns LOX IMVI melanoma.
Assay [8] relates to M14 melanoma.
Assay [9] concerns OVCAR-5 ovarian.
The subject of assay [10] is SF-295 CNS.

Each structure is given as a SMILES string. Values joined by “and” are separate entries in the source; they are usually repeats but may differ in a detail not shown here. Identical values can stand only once.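 Where inhibition never reached the appropriate level, the endpoint shown equals the highest concentration tested. Otherwise, values were interpolated linearly from a five-concentration, 48-hour dose response in 96-well plates. GI50 = concentration required for 50% inhibition of growth. Definition used: TGI = concentration required for complete inhibition of growth.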 Where only a bound is given, the exact number is not on record here.

As usually defined, the GI50 is the concentration at which growth is held to half of that of the control. As usually defined, the TGI is the concentration giving total growth inhibition. Low values mean more potent growth arrest, high ones less potent growth arrest. `c1ccc(Cn2cnc3ccc(-c4nc(-c5ccc6c(c5)ncn6C5CCCCC5)cn5ccnc45)cc32)cc1`: the GI50 in assay [1] was 2600 nM; in [2], 4.54 µM; in assay [3] it was 1680 nM; in [4], 3.52 µM. The TGI in assay [1] is 6.54 µM; in assay [2], greater than 100 µM; in assay [3], greater than 100 µM; in assay [4] it was greater than 100 µM.
`CC(=O)N[C@H](C(=O)N[C@@H](CCCNC(=N)N)C(=O)N[C@@H](CCCCN)C(=O)N[C@@H](CCCNC(=N)N)C(=O)N[C@]1(C)CCCCCC/C=C\CCC[C@@](C)(C(=O)N[C@@H](CCCNC(=N)N)C(=O)N[C@@H](CCC(=O)O)C(=O)N[C@@H](CC(C)C)C(=O)N[C@H](C(=O)N[C@@H](CCC(=O)O)C(N)=O)C(C)C)NC(=O)[C@H](CCC(N)=O)NC(=O)[C@H](CC(C)C)NC(=O)[C@H](CC(C)C)NC(=O)[C@H](CCCNC(=N)N)NC(=O)[C@H](CCCNC(=N)N)NC(=O)[C@H](CC(C)C)NC1=O)C(C)C`: the GI50 in assay [5] was 12 µM; in [6], 7.91 µM; in assay [7], 10.1 µM; in assay [8], 2130 nM; in [9] it was 11.5 µM; in [1], 1600 nM. Also, the GI50 was 4.4 µM in assay [10], 10.3 µM in assay [2] and 1.6 µM in [4]. The TGI in assay [5] was 37.6 µM; in assay [6], 41.3 µM; in assay [7], 43 µM; in assay [8], 27.6 µM; in [9], 41.2 µM; in assay [1] it was greater than 50 µM. The TGI is 30.1 µM in [10], greater than 50 µM in assay [2] and 8.8 µM in assay [4].
Regarding `CC1(Cc2ccccc2)NC(=S)NC1=O` (configuration not stated), the TGI in assay [6], in [7], in [8], in [9], in [1] and in assay [10] was greater than 100 µM each time. The TGI in [2], in assay [3] and in [4] was greater than 100 µM throughout.
For the molecule `CCC1=C[C@@H]2CN(C1)Cc1c([nH]c3ccccc13)[C@@](C(=O)OC)(c1cc3c(cc1OC)N(C)[C@H]1[C@@](O)(C(=O)OC)[C@H](OC(C)=O)[C@]4(CC)[C@@H]5C[C@@H]5CN5CC[C@]31[C@@H]54)C2`, the GI50 was less than 0.005 µM in assay [5]; less than 0.005 µM in assay [6]; less than 0.005 µM in [7]; < 5 nM and 11.9 nM in assay [8]; < 5 nM and 29.2 nM in assay [1]; less than 0.005 µM in assay [10]. Also, in [3], the GI50 was less than 5 nM. Besides, the TGI in assay [5] is 5.18 µM and 13 µM; in assay [6], 0.8 µM and 1.06 µM; in assay [9], 16.9 µM and 73.9 µM; in assay [1] it was 6.9 µM and 12.7 µM; in assay [10], < 0.005 µM and 0.011 µM; in assay [2] it was 19.2 µM and 35.1 µM.
On to `Cc1cc(N(CCC#N)CCC#N)ccc1/C=C1N=C(/C=C/c2ccccc2)OC(=O)N\1`, for which the TGI in assay [5], in assay [6], in [7], in assay [8], in [9] and in assay [1] was greater than 100 µM each time. Also, the TGI in [10] is 41.3 µM; in [2], greater than 100 µM; in [4] it was greater than 100 µM.
Consider `Cn1c2ccccc2c2c(=O)c3ccccc3[nH]c21`, for which the GI50 is 17.6 µM in [5]; 54 µM in assay [6]; 44.2 µM in assay [7]; 30.8 µM in assay [9]; greater than 100000 nM in assay [1]; 82.8 µM in [10]. The figures for the GI50 in assay [2], in assay [3] and in assay [4] were 43.9 µM, greater than 100000 nM and 42.4 µM, respectively. The TGI in assay [5] is 52.9 µM; in assay [6] it was greater than 100 µM; in assay [7], greater than 100 µM; in [9], greater than 100 µM; in assay [1], greater than 100 µM; in assay [10], greater than 100 µM. Besides, the TGI in [2], in [3] and in [4] was greater than 100 µM throughout.
As to `Cl[Si]1(Cl)Oc2ccccc2O[Si](Cl)(Cl)Oc2ccccc2O1`, the TGI was greater than 100 µM in assay [5]; 70.9 µM in assay [6]; 36.5 µM in assay [7]; 34.3 µM in assay [8]; greater than 100 µM in [9]; greater than 100 µM in assay [1]. Moreover, the TGI in assay [10] is 98.2 µM; in [2], greater than 100 µM; in assay [4] it was greater than 100 µM.
`COc1ccccc1-c1cc(=O)c2ccc(C)nc2[nH]1`: the GI50 in assay [5] was 37.6 µM; in assay [10] it was greater than 100 µM. For the same molecule, the TGI in assay [5], in [6], in assay [7], in assay [8], in assay [9] and in assay [1] was greater than 100 µM throughout. The TGI in [10], in [2] and in [4] was greater than 100 µM throughout.
Take `NC(=O)/C=C/C(=O)O`: the TGI in assay [5], in assay [6], in assay [7], in assay [8], in assay [9] and in assay [1] was greater than 5000 µM in each case. Moreover, the TGI in assay [10], in assay [3] and in assay [4] was greater than 5000 µM throughout.
For `COc1c(Br)cc(Br)c(OC)c1-c1[nH]c(Br)c(Br)c1Br`, the TGI in [5] is 12.3 µM; in assay [6], 18.3 µM; in assay [7] it was 31.6 µM; in [8], 20.6 µM; in assay [9] it was 29 µM; in assay [1] it was 25 µM. Moreover, the TGI in assay [10] is 17.4 µM; in assay [2], greater than 100 µM; in [4] it was 24.7 µM.
In the case of `O=C1C=C(O)c2[nH]c(=O)ccc2C1=O`, the TGI in [5], in assay [6], in assay [7], in assay [8], in [1] and in assay [10] was greater than 100 µM each time. Moreover, the TGI in assay [2], in assay [3] and in [4] was greater than 100 µM each time.
